{
  "source": "patent US20140322360A1",
  "about": "“METHOD AND DEVICE FOR ATTRACTING BLOOD-SUCKING ARTHROPODS” (BIOGENTS AG, priority 2011, published 2014)",
  "test_system": "female mosquitoes",
  "experiment": "Y-olfactometer test of attractiveness (activation and orientation of mosquitoes)",
  "type": "in vivo",
  "settings": "A0, B0, C0 together, regardless of the CO2 concentration used",
  "from_the_text": "Olfactometer tests are particularly useful during product development. They are used to filter out the most promising candidate substances from a number of interesting attractants or repellents quickly and cost-effectively. In particular, the olfactometer 60 has the form of a “Y”. A cage with piercing joyful female mosquitoes is connected to the lower end 62 of the “Y” of the air conditioned tubular system of the olfactometer 60. The two arms 64 and 65 of the “Y” each include the control chamber 70 and test chamber 72. Air L flows through both chambers 70, 72 and is then combined in the base leg 66 of the “Y”. During the phase when the stimulus is given, the test mosquitoes can fly into the direction of movement B into the olfactometer 60 and choose between the test chamber 72 with air containing the stimulus and the control chamber 70 containing clean air. Air L flows through the olfactometer 60 in the direction opposite to the direction of movement B of the mosquitoes, the air L being entrained with the attractant from the test chamber 72. Firstly, the activation or mobilization of the test mosquitoes is determined. This refers to a non-directional fly away of the mosquitoes when a stimulus is given. […] Then the orientation is further determined by counting the number of mosquitoes in the test chamber 72. […]",
  "data": [
    {"smiles": "O=C=O", "note": "[CO2]", "values": [
      {"measurement": "directional orientation Y", "result": "about 50%"},
      {"measurement": "undirected activation X", "result": "about 83%"}
    ]}
  ]
}
